{"source": "patent US20170246124A1", "about": "“TREATMENT OF LEIGH SYNDROME AND LEIGH-LIKE SYNDROME WITH TOCOTRIENOL QUINONES” (BioElectron Technology Corporation, priority 2009, published 2017)", "key": {"SURF-1 fibroblasts": {"system": "SURF-1 fibroblasts", "experiment": "Surfeit-1 (SURF1) cell line assay: rescue of BSO-stressed patient fibroblasts, Calcein AM viability", "assay_type": "cell-based", "conditions": "Homo sapiens, Fibroblast, BSO-stressed fibroblasts of the Example 2 patient", "procedure": "Alpha-Tocotrienol quinone, its redox-silent version (the bis-Boc protected corresponding hydroquinone), and solvent controls were tested for their ability to rescue cells from SURF-1 fibroblasts of the patient diagnosed with SURF-1 described in Example 2, when the cells were stressed by addition of L-buthionine-(S,R)-sulfoximine (BSO), as described in Jauslin et al., Hum. Mol. Genet. 11(24):3055 (2002), Jauslin et al., FASEB J. 17:1972-4 (2003), and International Patent Application WO 2004/003565. EC50 concentrations of test compound and its redox-silent version were determined and compared. The following compound, 2-((6E,10E)-3-hydroxy-3,7,11,15-tetramethylhexadeca-6,10,14-trienyl)-3,5,6-trimethyl-bis(t-butyloxycarbonyl)benzene-1,4-diol, the bis-Boc protected hydroquinone form of alpha-tocotrienol quinone, was used as the “redox-silent” alpha tocotrienol quinone, or αTTQ-RS.\nMEM (a medium enriched in amino acids and vitamins, catalog no. 1-31F24-I) and Medium 199 (M199, catalog no. 1-21F22-I) with Earle's Balanced Salts, without phenol red, were purchased from Bioconcept. Fetal Calf Serum was obtained from PAA Laboratories. Basic fibroblast growth factor and epidermal growth factor were purchased from PeproTech. Penicillin-streptomycin-glutamine mix, L-buthionine (S,R)-sulfoximine, and insulin from bovine pancreas were purchased from Sigma. […]"}, "[1]": {"experiment": "Blood-brain barrier crossing, homogenized brains of mice dosed IP", "assay_type": "in vivo", "conditions": "C57/BL mice dosed IP at 25 mg/kg, FIG. 5"}, "[2]": {"experiment": "Animal study of alpha-tocotrienol quinone administration, pharmacokinetics in rats", "conditions": "rat, in vivo, 10 mg/kg", "procedure": "(§1) The particular dosage appropriate for a specific patient is determined by dose titration. […] There is less than dose-proportionality since for an increase in doses of 2.4:6:10:20 there is only an increase in AUCs of 1.5:2.8:4.0:6.7. This lack of dose-proportionality may be due to decreased absorption since there is no change in t1/2 over dose range. Alpha-tocotrienol quinone tested in rats was safe when given acutely up to 2000 mg/kg."}, "[3]": {"experiment": "Animal study of alpha-tocotrienol quinone administration, pharmacokinetics in fasted dogs", "conditions": "dog, in vivo, po, 10 mg/kg", "procedure": "as §1"}, "[4]": {"conditions": "rat, in vivo", "procedure": "as §1\nThe starting dose can be estimated based on the United States Food and Drug Administration guidelines titled “Estimating the Maximum Safe Starting Dose in Initial Clinical Trials for Therapeutics in Adult Healthy Volunteers” (July 2005) as well as the International Conference on Harmonisation of Technical Requirements for Registration of Pharmaceuticals for Human Use (ICH) guidelines titled “Guidance on Non-clinical Safety Studies for the Conduct of Human Clinical Trials and Marketing Authorization for Pharmaceuticals” (July 2008). Per ICH guidelines, predicted exposures from the starting dose should not exceed 1/50th the NOAEL (No-Adverse-Observed-Effect-Level) in the more sensitive species on a mg/m^2 basis. Following a single oral dose of alpha-tocotrienol quinone, the NOAEL was established to be 500 mg/kg for the female rat, i.e. 3,000 mg/m2. This dosage would be equivalent to 81 mg/kg in an adult human. […]"}, "[5]": {"experiment": "Treatment of a Leigh Syndrome patient with SURF-1 mutations (Example 2): drug levels in plasma and CSF", "assay_type": "in vivo, human", "conditions": "Example 2 patient", "procedure": "(§2) The patient's weight was approximately 10 kg. Alpha-tocotrienol quinone was administered to the patient via gastrointestinal feeding tube; the drug was mixed with sesame oil for administration. The following dosing of alpha-tocotrienol quinone was used:\nFull pharmacokinetic sampling (post dose, 3 h, 6 h, 10 h, 24 h, 36 h, 48 h, and 72 h) was done after administration of the initial dose. 0.5 mL of blood were taken at each time point, for a total of four mL of blood drawn at 72 h. Bio-analysis and pharmacokinetic calculations were conducted.\nThe minimal effective dose of alpha-tocotrienol quinone was determined. The concentration 24 hours after dosing (C24h) was expected to be 220.5 ng/ml (0.504), while the minimal effective dose was expected to be around 150 mg. Thus, the daily dosage was escalated stepwise.\nThe concentration of alpha tocotrienol quinone was monitored in the patient. […] Alpha tocotrienol quinone was present at 1.3 ng/ml in CSF."}, "[6]": {"system": "patient with Leigh Syndrome", "experiment": "Treatment of a Leigh Syndrome patient with SURF-1 mutations (Example 2): lactate, MRI, adverse events", "assay_type": "in vivo, human", "conditions": "Example 2 patient", "procedure": "A patient with Leigh Syndrome was treated with alpha-tocotrienol quinone. Informed consent was obtained from the child's parents in accordance with federal regulations and institutional protocol. Two mutations were identified in the SURF-1 gene of the patient.\nas §2\nThe patient returned for a review of safety and efficacy evaluation, including CNS lactate/pyruvate ratios as determined by non-invasive means (MRI/MRS) and ECHO. The following efficacy parameters were evaluated: PK parameters; magnetic resonance spectroscopy of central nervous system; echocardiography and electrocardiogram; and plasma and urine analytes.\nLactic acid measurements were as follows:\nMagnetic resonance imaging of the patient was performed to assess the effect of treatment. […] These findings are consistent with Leigh Syndrome encephalopathies.\nClose monitoring of the patient during the study was performed, to detect any adverse events. In addition, the investigator had authority to stop the study if the safety of the subject was at risk."}, "[7]": {"system": "patient with Leigh Syndrome", "experiment": "Treatment of a Leigh Syndrome patient (Example 3), observed function", "assay_type": "in vivo, human", "conditions": "Example 3 patient", "procedure": "A patient with Leigh Syndrome was treated with alpha-tocotrienol quinone. Informed consent was obtained from the child's parents in accordance with federal regulations and institutional protocol. A mutation was identified in the SURF-1 gene of the patient.\nAt the start of treatment, the patient was unable to control their extremities. […] The patient also gained weight."}, "[8]": {"conditions": "after treatment compared with pre-treatment MRI"}}, "note": "pEC50: −log10 of the molar value. Like-named read-outs stand apart in the source and are kept apart here."}
{"smiles": "CC(C)=CCC/C(C)=C/CC/C(C)=C/CCC(C)(O)CCC1=C(C)C(=O)C(C)=C(C)C1=O", "note": "(stereo not drawn) [alpha-tocotrienol quinone, Alpha-tocotrienol quinone]", "values": [{"measurement": "pEC50", "setting": "SURF-1 fibroblasts; FIG. 1 experiment run beside Coenzyme Q10, read-out: EC50, viability of cells with a SURF-1 mutation (FIG. 1)", "result": 7.57}, {"measurement": "pEC50", "setting": "SURF-1 fibroblasts; FIG. 2 experiment run beside αTTQ-RS, read-out: EC50, viability of cells with a SURF-1 mutation (FIG. 2)", "result": 7.68}, {"measurement": "crosses the blood-brain barrier", "setting": "[1]", "result": "crosses the blood-brain barrier"}, {"measurement": "bioavailability", "setting": "[2]", "result": "~90", "unit": "%"}, {"measurement": "bioavailability", "setting": "[3]", "result": "~16", "unit": "%"}, {"measurement": "dose at which safe when given acutely", "setting": "[4]", "result": "up to 2000 mg/kg"}, {"measurement": "NOAEL on mg/m2 basis", "setting": "[4]; po", "result": "3,000 mg/m2"}, {"measurement": "concentration 24 hours after dosing (C24h), expected", "setting": "[5]; expectation before dose escalation", "result": 220.5, "unit": "ng/mL"}, {"measurement": "concentration at 98 day of treatment", "setting": "[5]; human, cerebrospinal fluid, other: via gastrointestinal feeding tube, 98th day of treatment, FIG. 9", "result": 1.3, "unit": "ng/mL"}, {"measurement": "adverse events", "setting": "[6]; close monitoring during the study, FIG. 7", "result": "No adverse events were observed"}, {"measurement": "plasma lactate level after treatment", "setting": "[6]; 3.6 mM approximately 4 months prior to treatment, normal range 1.0 to 1.4 mM", "result": 1.1, "unit": "mM"}, {"measurement": "CSF lactate level after treatment", "setting": "[6]; 46.5 mg/dL about 2 years pre-treatment", "result": 24.0, "unit": "mg/dL"}, {"measurement": "MRI: T2 hyperintensities of midbrain, pons, medulla and cerebellum", "setting": "[6]; [8]", "result": "interval improvement"}, {"measurement": "MRI: amount of lesions", "setting": "[6]; [8]", "result": "overall decrease"}, {"measurement": "reduction of CSF lactate", "setting": "[6]; after treatment vs about 2 years pre-treatment", "result": 48.4, "unit": "%"}, {"measurement": "reduction of plasma lactate", "setting": "[6]; after treatment vs approximately 4 months prior", "result": 69.4, "unit": "%"}, {"measurement": "decrease in brain lactate", "setting": "[6]; two days prior to treatment to approximately 98 days after starting", "result": "20-30%"}, {"measurement": "control of extremities", "setting": "[7]; after 22 days of treatment, unable to control extremities at start", "result": "able to move their arm in the “high-five” gesture"}, {"measurement": "motor function", "setting": "[7]; after 379 days of treatment", "result": "able to sit upright"}, {"measurement": "weight gained", "setting": "[7]; after 379 days of treatment", "result": 15, "unit": "pounds"}, {"measurement": "gastrointestinal function", "setting": "[7]; under treatment", "result": "greatly improved"}, {"measurement": "sleep", "setting": "[7]; under treatment", "result": "improved"}]}
